# From PMC10014103, “The immunometabolite itaconate stimulates OXGR1 to promote mucociliary clearance during the pulmonary innate immune response” (The Journal of Clinical Investigation, 2023)
# pEC50: −log10 of the molar value. Where “and” joins values, the source holds several entries; their conditions need not be identical. Equal entries are not always repeated.
# What was measured:
# [1] = target: T1, human OXGR1 (Homo sapiens, UniProt Q96P68); assay: cAMP GloSensor assay in HEK293 cells expressing human OXGR1; type: cell-based; details: 0.5 mM ligand, Gs/Gi coupling
# Procedure: For the GloSensor assay, HEK293 cells stably expressing pGloSensor-22F were transfected with GPCR plasmids. Thirty-six hours after transfection, cells were trypsinized and resuspended at a density of 2.5 × 10^5 cells/mL in HBSS supplemented with 10 mM HEPES, 0.5% BSA, 2% GloSensor cAMP Reagent stock solution (Promega), and 300 μM IBMX, and loaded with GloSensor substrates for 2 hours. Cell suspensions (100 μL) were aliquoted onto 96-well plates. Cells were treated with 0.5 mM of the indicated ligand or 1 μM forskolin, and luminance was recorded.
# [2] = target: T2, mouse OXGR1 (Mus musculus, UniProt Q6IYF8); assay: Aequorin assay (calcium mobilization) in HEK293 cells overexpressing mouse OXGR1; type: cell-based; details: aequorin assay, mOXGR1 in HEK293 cells; read-out: EC50
# T2 construct: expressed in transfected cells; host or cells: HEK293
# Procedure: Thirty-six hours after transfection, cells were maintained in serum-free medium for 12 hours and then loaded with 5 μM coelenterazine for 3 hours. Cells were trypsinized and resuspended at a density of 5 × 10^5 cells/mL in HBSS supplemented with 10 mM HEPES and 0.5% BSA. Cell suspensions of 100 μL were aliquoted into 96-well plates.
# [3] = tested on: primary human bronchial epithelial cells; assay: Calcium imaging (Fluo-4AM) of primary human bronchial epithelial cells; type: cell-based; details: 0.5 mM ITA
# Procedure: (§1) For calcium imaging of human primary bronchial epithelial cells, cells were infected with 2 CRISPR lentiviruses targeting OXGR1 and cultured for 2 days before calcium imaging. For calcium imaging of primary mouse cells, freshly isolated mouse tracheas were cut into rings, placed onto collagen-coated dishes, and cultured in DMEM supplemented with 10% FBS. Cells were loaded with 5 μM Fluo-4AM for 30 minutes in HBSS buffer, washed twice, and incubated for another 15 minutes for fully deesterification of Fluo-4AM. Cells loaded with Fluo-4AM were monitored with the BioTek Cytation 5 Cell imaging system every 300 ms for a total of 1.5 minutes after ligand administration. Fluorescence was quantified with ImageJ software (NIH).
# [4] = tested on: respiratory epithelium mucin secretion; assay: Intranasal administration, mucin-containing cells in nasal cavity (Alcian blue/PAS); type: in vivo, mouse; details: intranasal 500 μM ITA, 1 hour
# Excerpt: Harvested mouse skulls were fixed in 4% paraformaldehyde overnight and decalcified with 12% EDTA for 2 weeks. After full decalcification, the snoots were trimmed in between the incisor teeth and the first molar teeth. Trimmed tissues were embedded with paraffin, and sections were taken from the most proximal aspect of the nasal cavity. Mucin-containing epithelial cells distributed in the basement membrane of the nasal cavity floor and septum were visualized by Alcian blue/PAS staining and manually counted.
# [5] = target: T1, human OXGR1; assay: Stress fiber assay in NIH3T3 cells stably expressing OXGR1; type: cell-based, mouse; details: 500 μM ITA, 30 minutes, G12/13 coupling
# Procedure: For the stress fiber assay, NIH3T3 cells stably expressing OXGR1 were treated with 500 μM ITA or 10 μM lysophosphatidic acid (LPA) for 30 minutes. Cells were fixed with 4% paraformaldehyde and permeabilized with 0.1% Triton X-100. Stress fibers were stained with FITC-phalloidin (Invitrogen, Thermo Fisher Scientific). Nuclei were stained with DAPI. Immunofluorescence images were captured with a Leica SP8 laser-scanning confocal microscope.
# [6] = tested on: primary human respiratory epithelial cells (ALI culture); assay: Bead movement in ALI culture of primary human bronchial epithelial cells; type: cell-based; details: 500 μM ITA, OXGR1-dependent
# Procedure: . When they reached full confluence, the cells were differentiated by exposure to air and cultured in a serum-free medium for 20 days. ALI culturing of primary human bronchial epithelium was performed following the manufacturer’s manual ([…] Technologies). Briefly, cells were maintained in PneumaCult-Ex Plus medium on a Transwell insert. Medium on the lateral side was switched to PneumaCult-ALI medium. The apical side of the Transwell membrane was then carefully washed with prewarmed Dulbecco’s PBS (DPBS). Cells were differentiated by exposure to air for 3 weeks. The medium was changed every 2 days.
# For the measurement of bead movement in ALI culture, the apical side of the ALI culture inserts was washed with PBS 5 times to fully remove mucus. The inserts were transferred to HBSS buffer supplemented with 30 mM HEPES and the indicated ligand, and 20 μL bath buffer containing red fluorescent beads was added to the apical side. After 15 minutes of equilibration, bead movement was monitored with the BioTek Cytation 5 cell imaging system.
# [7] = tested on: mouse trachea; assay: Ex vivo trachea culture, cilia beating-derived fluorescent bead movement; details: 500 μM ITA or 100 μM ATP
# Procedure: Tracheas were harvested from mice and cut longitudinally through the middle of the trachealis muscle to expose the lumen of the trachea. Tracheas were then transferred into HBSS buffer and equilibrated for 30 minutes. With the lumen facing down, trachea tissues were transferred into 2 mL HBSS buffer supplemented with 0.5% methylcellulose, red fluorescent beads, 30 mM HEPES, and the indicated ligand. Bead flow was monitored with the BioTek Cytation 5 cell imaging system. Twenty individual beads were tracked from different fields of view in each condition, and the speed of each bead was calculated by […].
# [8] = tested on: primary respiratory epithelial cells from Oxgr1+/+ and Oxgr1–/– mice; assay: Calcium imaging (Fluo-4AM) of primary mouse trachea epithelial cells; type: cell-based; details: 670 μM ITA or 100 μM ATP
# Procedure: as §1
# [9] = tested on: Pseudomonas aeruginosa strain PAO1; assay: Mouse intranasal infection with P. aeruginosa strain PAO1, CFU in BAL and lung; type: in vivo; details: intranasal 1 mM ITA with PAO1, 12 hours after infection
# Procedure: A 1 × 10^7 log-phase PAO1 strain in 40 μL PBS was used for infection of the mice. Mice were gently restrained by the scruff at a 45° angle. PBS with the indicated strains was delivered to the nares. PBS alone or with 1 mM ITA was codelivered along with PAO1. Mouse mouths were covered during the whole procedure to ensure complete inhalation into the nose and the lower respiratory tract. BAL and lung tissue were collected 12 hours of infection and plated in cetyl trimethyl ammonium bromide (CTAB) selection agar. The numbers of CFU were counted after 18 hours of culture.
# [10] = tested on: mucin 5b and β-defensin 1; assay: ELISA of mucin 5b and β-defensin 1 in BAL of P. aeruginosa infected mice; type: in vivo, mouse; details: ITA intranasal supplementation, P. aeruginosa infection
# Excerpt: Mucins and antimicrobial polypeptides are essential immune defense components secreted by the respiratory tract ([41], [42]). To test the hypothesis that ITA/OXGR1 signaling may alter the concentration of mucins and antimicrobial polypeptides, we performed an ELISA to quantify the concentration of mucin 5b and β-defensin 1 in the mouse models of P. aeruginosa infection. […] It should be noted that Oxgr1 activation by ITA can simultaneously facilitate mucus secretion and mucus transport (Figure 4). These 2 “opposite” effects of ITA/OXGR1 on mucus may explain the observation of a lack of significant change in mucin 5b and β-defensin 1 in the airway’s surface liquid.
# T2 sequence (Q6IYF8 whole entry): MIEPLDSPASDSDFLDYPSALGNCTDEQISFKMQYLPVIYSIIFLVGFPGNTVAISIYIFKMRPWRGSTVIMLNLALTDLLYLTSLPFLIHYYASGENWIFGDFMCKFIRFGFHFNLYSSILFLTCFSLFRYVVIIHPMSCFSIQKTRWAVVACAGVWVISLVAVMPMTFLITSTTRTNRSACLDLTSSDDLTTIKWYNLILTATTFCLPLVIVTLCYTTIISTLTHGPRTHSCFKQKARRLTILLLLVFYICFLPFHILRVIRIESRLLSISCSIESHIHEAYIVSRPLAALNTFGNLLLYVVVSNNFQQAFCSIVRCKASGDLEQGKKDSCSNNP
smiles,measurement,setting,value
"C=C(CC(=O)O)C(=O)O [ITA, itaconate]",intracellular cAMP,[1],did not affect intracellular cAMP
same,pEC50,[2],3.38 and ~3.40
same,calcium mobilization,[3]; control cells,robust calcium mobilization
same,calcium mobilization after depletion of OXGR1,[3]; sgOXGR1,abolished by depletion of OXGR1
same,"mucin-containing cells in respiratory epithelium, Oxgr1+/+ mice",[4],decrease of mucin-containing cells
same,"mucin-containing cells in respiratory epithelium, Oxgr1–/– mice",[4],did not observe an effect
same,stress fiber formation,[5],failed to affect stress fiber formation
same,movement of beads,[6],accelerated the movement of beads
same,"movement of beads, trachea from Oxgr1+/+ mice",[7],significantly increased the movement of beads
same,"calcium mobilization, Oxgr1+/+ cells",[8],rapid calcium mobilization
same,"bacterial overgrowth phenotype (CFU in BAL and lung), Irg1–/– mice",[9],rescued the bacterial overgrowth phenotype
same,level of mucin 5b in BAL,[10],Neither ITA intranasal supplementation nor Irg1 or Oxgr1 KO altered the levels
same,level of β-defensin 1 in BAL,[10],Neither ITA intranasal supplementation nor Irg1 or Oxgr1 KO altered the levels
